Assay results published in patent US20040224981A1, “Antibacterial methods and compositions” (priority 2003, published 2004).
Like-named read-outs stand apart in the source and are kept apart here.

What was measured:
S. hemolyticus = assay: MIC against S. hemolyticus; format: cell-based
Procedure: (§1) The MRS inhibitor 4 alone and in combination with mupirocin (mupirocin salt and 1:1 combination) were tested against a collection of Gram-positive pathogens.
(§2) The MRS inhibitor 8 was also prepared as a fusidate and mupirocinate salt and tested for antibacterial activity against Gram-positive bacteria (Table 3). […] MRSi compound 8 alone and the fusidate and mupirocin salts were active against mupirocin-resistant S. aureus and S. epidermidis and organisms such as E. faecalis that are not susceptible to mupirocin.
(§3) The MRS inhibitor 5 acetate and mupirocin salts were tested against a collection of Gram-positive bacteria.

S. epidermidis = assay: MIC against S. epidermidis; format: cell-based
Procedure: as §1, §2, §3

[1] = test system: MRS-resistant mutants of S. aureus; assay: Susceptibility (MIC) of MRS-resistant mutants of S. aureus; format: cell-based; conditions: Staphylococcus aureus
Procedure: MRS-resistant mutants generated in vitro in either serial passage or spontaneous resistance development studies were evaluated for susceptibility to mupirocin alone and in a 1:1 combination with MRSi compound 5.

S. pyogenes = assay: MIC against S. pyogenes; format: cell-based, Streptococcus pyogenes
Procedure: as §1
S. pyogenes is also a significant skin pathogen and 48 recent clinical isolates were tested for their susceptibility to MRSi compound 5 alone (acetate) and in combination (1:1) with mupirocin (mupirocinate).

E. faecalis = assay: MIC against E. faecalis; format: cell-based; conditions: for MIC: Enterococcus faecalis, read-out: MIC
S. aureus = assay: MIC against S. aureus strains and clinical isolates (broth microdilution); format: cell-based, Staphylococcus aureus; conditions: Staphylococcus aureus, read-out: MIC
Summary of the method: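 Broth microdilution per NCCLS in cation-supplemented Mueller-Hinton broth, final inoculum 5×10^5 CFU/ml from 0.5 McFarland suspensions diluted 1:10. Trays incubated aerobically overnight with quality control strains each run. Checkerboard FIC index: ≦0.5 synergy, >0.5 to 4 additive/indifferent, >4.0 antagonism.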

[2] = 48 recent clinical isolates of S. pyogenes
[3] = recent clinical isolates of E. faecalis, ALL (28)

## C/C(=C\C(=O)OCCCCCCCCC(=O)O)C[C@@H]1OC[C@H](C[C@@H]2O[C@H]2[C@@H](C)[C@H](C)O)[C@@H](O)[C@H]1O [Mupirocin, Pseudomonic acid A]
S. hemolyticus; Table 2, S. hemolyticus NRS50, read-out: MIC
  MIC: 0.12 µg/mL
S. hemolyticus; Table 2, S. hemolyticus NRS116, read-out: MIC
  MIC: 0.25 µg/mL
S. hemolyticus; Table 3, S. hemolyticus NRS50
  MIC: 0.12 µg/mL
S. hemolyticus; Table 3, S. hemolyticus NRS116
  MIC: 0.25 µg/mL
S. hemolyticus; Table 4, S. hemolyticus NRS50
  MIC: 0.12 µg/mL
S. hemolyticus; Table 4, S. hemolyticus NRS116
  MIC: 0.25 µg/mL
S. epidermidis; Staphylococcus epidermidis, Table 2, S. epidermidis NRS6, read-out: MIC
  MIC: > 8 µg/mL
S. epidermidis; Staphylococcus epidermidis, Table 2, S. epidermidis NRS7, read-out: MIC
  MIC: 8 µg/mL
S. epidermidis; Staphylococcus epidermidis, Table 2, S. epidermidis NRS8, read-out: MIC
  MIC: > 8 µg/mL
S. epidermidis; Table 3, S. epidermidis NRS6
  MIC: >8 µg/mL
S. epidermidis; Table 3, S. epidermidis NRS7
  MIC: 8 µg/mL
S. epidermidis; Table 3, S. epidermidis NRS8
  MIC: >8 µg/mL
S. epidermidis; Table 4, S. epidermidis NRS6
  MIC: >8 µg/mL
S. epidermidis; Table 4, S. epidermidis NRS7
  MIC: 8 µg/mL
S. epidermidis; Table 4, S. epidermidis NRS8
  MIC: >8 µg/mL
[1]; ATCC29213, S. aureus ATCC 29213, metS wild-type
  MIC: 0.12 µg/mL
[1]; S. aureus SP-9B5, metS I57N, V296F
  MIC: 0.5 µg/mL
[1]; S. aureus SP-21A, metS A77V
  MIC: 1 µg/mL
[1]; read-out: MICs ranging, all the MRS-resistant mutants
  MIC: 0.12 to 1 µg/mL
S. pyogenes; [2]
  MIC50: 0.12 µg/mL
  MIC90: 0.25 µg/mL
  Mode (MIC): 0.12 µg/mL
S. pyogenes; 48 recent clinical isolates of S. pyogenes, in µg/mL
  MIC Range: 0.03-0.5
S. pyogenes; Streptococcus pyogenes, ATCC19615, Table 2, S. pyogenes ATCC 19615, read-out: MIC
  MIC: 0.12 µg/mL
S. pyogenes; Streptococcus pyogenes, Table 2, S. pyogenes MB143 (macrolide rest.), read-out: MIC
  MIC: 0.12 µg/mL
S. pyogenes; Table 3, S. pyogenes ATCC 19615
  MIC: 0.12 µg/mL
S. pyogenes; Table 3, S. pyogenes MB143 (macrolide rest.)
  MIC: 0.12 µg/mL
S. pyogenes; Table 4, S. pyogenes ATCC 19615
  MIC: 0.12 µg/mL
S. pyogenes; Table 4, S. pyogenes MB000143
  MIC: 0.12 µg/mL
E. faecalis; E. faecalis, Van-R(11)
  MIC50: > 8 µg/mL
  MIC90: > 8 µg/mL
  Mode (MIC): > 8 µg/mL
E. faecalis; E. faecalis, Van-S (16)
  MIC50: > 8 µg/mL
  MIC90: > 8 µg/mL
  Mode (MIC): > 8 µg/mL
E. faecalis; ATCC29212, Table 2, E. faecalis ATCC 29212
  MIC: 8 µg/mL
E. faecalis; ATCC29212, Table 3, E. faecalis ATCC 29212
  MIC: 8 µg/mL
E. faecalis; ATCC29212, Table 4, E. faecalis ATCC 29212
  MIC: > 8 µg/mL
E. faecalis; ATCC 51299 / VRE, Table 8, E. faecalis ATCC 51299 (VRE)
  MIC: 32 µg/mL
E. faecalis; Table 2, E. faecalis 1
  MIC: 8 µg/mL
E. faecalis; Table 2, E. faecalis 7
  MIC: 8 µg/mL
E. faecalis; Table 3, E. faecalis 1
  MIC: 8 µg/mL
E. faecalis; Table 3, E. faecalis 7
  MIC: 8 µg/mL
E. faecalis; Table 4, E. faecalis 1
  MIC: > 8 µg/mL
E. faecalis; Table 4, E. faecalis 7
  MIC: > 8 µg/mL
E. faecalis; Table 8, E. faecalis 1
  MIC: 32 µg/mL
E. faecalis; Table 8, E. faecalis 7
  MIC: 64 µg/mL
E. faecalis; [3]
  MIC50: > 8 µg/mL
  MIC90: > 8 µg/mL
  Mode (MIC): > 8 µg/mL
S. aureus; ATCC29213, Table 2, S. aureus ATCC 29213
  MIC: 0.12 µg/mL
S. aureus; ATCC29213, Table 3, S. aureus ATCC 29213
  MIC: 0.12 µg/mL
S. aureus; ATCC29213, Table 4, S. aureus ATCC 29213
  MIC: 0.12 µg/mL
S. aureus; ATCC43300, S. aureus ATCC 43300 (ORSA)
  MIC: 0.12 µg/mL
S. aureus; ATCC43300, Table 2, S. aureus ATCC 43300 (ORSA)
  MIC: 0.25 µg/mL
S. aureus; ATCC43300, Table 3, S. aureus ATCC 43300 (ORSA)
  MIC: 0.25 µg/mL
S. aureus; NRS 1 / VISA, S. aureus NRS1 (VISA)
  MIC: 0.12 µg/mL
S. aureus; NRS 1 / VISA, VISA, S. aureus NRS1 (Mu50)
  MIC: 0.06 µg/mL
